Laboratory results from PMC6803038 (Angewandte Chemie (International ed. in English), 2019).
Where no end group is shown, it is not given here. [ ]: non-standard residue; d: D form. Nle = CCCC[C@H](N)C(=O)O

T1: HDAC8 (UniProt Q9BY41 1-377)
T1 sequence (looked up): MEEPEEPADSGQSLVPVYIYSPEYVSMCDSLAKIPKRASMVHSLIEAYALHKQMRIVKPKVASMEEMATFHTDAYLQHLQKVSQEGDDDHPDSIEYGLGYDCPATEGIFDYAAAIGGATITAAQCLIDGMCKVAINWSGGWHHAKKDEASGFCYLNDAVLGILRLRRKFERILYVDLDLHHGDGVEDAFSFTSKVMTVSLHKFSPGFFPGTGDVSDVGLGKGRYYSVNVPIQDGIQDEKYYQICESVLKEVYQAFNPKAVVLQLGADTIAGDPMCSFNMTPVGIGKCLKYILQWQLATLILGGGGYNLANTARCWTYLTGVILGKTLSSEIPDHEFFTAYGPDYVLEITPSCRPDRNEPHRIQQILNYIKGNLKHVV


Assays:
[1] = physiological conditions; cited from earlier work
TEV protease = TEV protease (Tobacco etch virus, UniProt P04517); assay: Fluorescence polarization binding of 5-FAM-conjugated peptides to TEV protease; details: cyclic vs linear counterpart
Chain of TEV protease (P04517 2038-2279): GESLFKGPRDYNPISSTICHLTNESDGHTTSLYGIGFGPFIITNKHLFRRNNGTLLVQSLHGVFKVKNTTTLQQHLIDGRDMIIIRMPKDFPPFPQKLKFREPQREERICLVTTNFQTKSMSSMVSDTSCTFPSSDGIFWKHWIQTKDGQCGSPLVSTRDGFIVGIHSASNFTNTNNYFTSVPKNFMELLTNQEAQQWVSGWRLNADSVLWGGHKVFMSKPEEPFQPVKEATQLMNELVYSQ

HDAC8 = target: T1, HDAC8; assay: fluorescence polarisation

Kd (HDAC8) [µM] | Molecule | better binding of cyclic peptide than its linear counterpart (TEV protease) [fold] | also measured
– | C=CC(=O)NCCCC[C@H](N)C(=O)O [AcrK, N^ε-acryloyl-lysine] | – | second-order rate constant of reaction with a thiol [1]: 0.004 M⁻¹ s⁻¹
– | CC[C@H](C)[C@@H]1NC(=O)[C@H](CC(C)C)NC(=O)[C@H](Cc2ccc(O)cc2)NC(=O)[C@H](CC(=O)O)NC(=O)[C@H](CCCNC(=N)N)NC(=O)[C@H](Cc2c[nH]c3ccccc23)NC(=O)[C@@H](N)CSCCC(=O)NCCCC[C@@H](C(=O)O)NC1=O [CycTev1, CWRDYLIX] | > 6 | –
– | N=C(N)NCCC[C@@H]1NC(=O)[C@H](Cc2c[nH]cn2)NC(=O)[C@H](CO)NC(=O)[C@H](Cc2ccccc2)NC(=O)[C@H](Cc2c[nH]c3ccccc23)NC(=O)[C@H](CCC(N)=O)NC(=O)[C@@H](N)CSCCC(=O)NCCCC[C@@H](C(=O)O)NC1=O [CycTev2, CQWFSHRX] | > 6 | –
31 ± 7 | CQSLWMN[Nle] (also: 5-FAM conjugated, site not given here) [5-FAM-conjugated LinH8a’] | – | –
> 50 | CQSLWMNK (also: 5-FAM conjugated, site not given here) [5-FAM-conjugated LinH8a] | – | –
